# Results published in ChEMBL document CHEMBL1201862, “PubChem BioAssay data set” (2004).
# The source made the active and inactive calls.
# What was measured:
# [1] = target: T1, Estrogen receptor (Homo sapiens, UniProt P03372); assay: ERα coactivator recruitment enhancers – biochemical, TR-FRET, ERα LBD, dose response (AID 737)
# T1 sequence (P03372 whole entry): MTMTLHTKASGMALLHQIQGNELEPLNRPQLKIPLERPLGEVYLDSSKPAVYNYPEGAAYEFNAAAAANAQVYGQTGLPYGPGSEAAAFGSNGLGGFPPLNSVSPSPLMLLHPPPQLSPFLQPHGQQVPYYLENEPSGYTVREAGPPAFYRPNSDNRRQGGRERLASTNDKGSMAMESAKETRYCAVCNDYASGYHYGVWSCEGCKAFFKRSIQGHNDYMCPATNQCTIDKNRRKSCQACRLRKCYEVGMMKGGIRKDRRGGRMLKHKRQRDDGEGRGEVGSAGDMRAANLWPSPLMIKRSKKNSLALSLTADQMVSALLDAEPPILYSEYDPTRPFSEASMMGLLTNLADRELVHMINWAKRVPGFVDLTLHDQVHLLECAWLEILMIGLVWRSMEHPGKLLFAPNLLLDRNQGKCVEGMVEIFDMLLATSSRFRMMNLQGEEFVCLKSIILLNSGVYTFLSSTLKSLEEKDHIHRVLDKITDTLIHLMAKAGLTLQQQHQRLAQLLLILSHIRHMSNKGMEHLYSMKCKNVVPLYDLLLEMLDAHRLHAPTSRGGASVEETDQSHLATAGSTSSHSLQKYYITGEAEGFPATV
# [2] = test system: Streptococcus; assay: Luminescence Microorganism-Based Dose Response Follow up to Identify Compounds Cytotoxic to Streptococcus. [Related pubchem assays: 1677 (Project Summary), 1915, 1914, 1902 (Retest at Dose), 1900 (Counter Screen), 1662 (Primary HTS)]; type: functional, organism-based
# [3] = test system: Streptococcus; assay: GAS UMAA2166 growth inhibition – luminescence, BacTiterGlo, counter-screen for streptokinase expression inhibitor project, dose response (AID 1915); type: functional, organism-based;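 note: potency for reduction of bacterial viability or growth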
# [4] = test system: Streptococcus sp. 'group A'; assay: Streptococcus pyogenes SK(-)GAS viability under kanamycin – luminescence, BacTiterGlo, confirmation, counter-screen for streptokinase expression inhibitor project, dose response (AID 1900); type: functional, organism-based
# [5] = target: T2, Corticotropin-releasing factor receptor 2/Corticotropin-releasing factor-binding protein (Homo sapiens, UniProt P24387+Q13324); assay: activators of CRF receptor 2 with binding protein – uHTS hits, confirmation (AID 602473); type: functional; settings: read-out: EC50_Mean
# T2 sequence (Q13324 whole entry): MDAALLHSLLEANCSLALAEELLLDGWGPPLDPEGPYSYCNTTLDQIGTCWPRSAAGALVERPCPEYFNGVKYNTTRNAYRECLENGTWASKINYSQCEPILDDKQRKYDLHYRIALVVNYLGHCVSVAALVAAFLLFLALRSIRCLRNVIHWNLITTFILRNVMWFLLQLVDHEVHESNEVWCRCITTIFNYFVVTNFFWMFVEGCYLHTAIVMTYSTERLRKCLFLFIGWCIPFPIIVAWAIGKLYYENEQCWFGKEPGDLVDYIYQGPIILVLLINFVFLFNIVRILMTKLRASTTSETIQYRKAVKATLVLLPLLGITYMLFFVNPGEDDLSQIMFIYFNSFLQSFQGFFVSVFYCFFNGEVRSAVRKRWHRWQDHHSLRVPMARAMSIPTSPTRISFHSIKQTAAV
# T2 sequence (P24387 whole entry): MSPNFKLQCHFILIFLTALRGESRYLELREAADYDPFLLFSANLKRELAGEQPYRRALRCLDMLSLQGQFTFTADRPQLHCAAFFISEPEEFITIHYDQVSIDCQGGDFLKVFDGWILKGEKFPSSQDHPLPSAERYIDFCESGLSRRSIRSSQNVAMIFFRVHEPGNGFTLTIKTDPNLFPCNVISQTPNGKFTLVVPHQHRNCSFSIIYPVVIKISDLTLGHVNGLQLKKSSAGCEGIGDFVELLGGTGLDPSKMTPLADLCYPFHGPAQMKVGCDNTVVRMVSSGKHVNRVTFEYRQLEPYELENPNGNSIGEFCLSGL
# [6] = target: T2, Corticotropin-releasing factor receptor 2/Corticotropin-releasing factor-binding protein; assay: Dose Response confirmation of uHTS hits for small molecule antagonists of the CRF-binding protein and CRF-R2 receptor complex.; type: functional; settings: read-out: IC50_Mean
# [7] = target: Transitional endoplasmic reticulum ATPase (Homo sapiens, UniProt P55072); assay: p97 ATPase inhibitors, dose response, biochemical (AID 1534)
# [8] = blockers of CRF-binding protein–CRF-R2 complex – cell-based, uHTS hits, 384-well, dose response (AID 651639); type: functional, Homo sapiens; settings: read-out: IC50_Mean
# [9] = target: T3, Aminopeptidase N (Plasmodium falciparum FcB1/Columbia, UniProt O96935); assay: malaria alanyl aminopeptidase activity blockers – biochemical, fluorogenic H-Leu-NHMec substrate, 1536-well (AID 1445); set-up: species or system Plasmodium falciparum 3D7, 3D7
# T3 sequence (O96935 whole entry): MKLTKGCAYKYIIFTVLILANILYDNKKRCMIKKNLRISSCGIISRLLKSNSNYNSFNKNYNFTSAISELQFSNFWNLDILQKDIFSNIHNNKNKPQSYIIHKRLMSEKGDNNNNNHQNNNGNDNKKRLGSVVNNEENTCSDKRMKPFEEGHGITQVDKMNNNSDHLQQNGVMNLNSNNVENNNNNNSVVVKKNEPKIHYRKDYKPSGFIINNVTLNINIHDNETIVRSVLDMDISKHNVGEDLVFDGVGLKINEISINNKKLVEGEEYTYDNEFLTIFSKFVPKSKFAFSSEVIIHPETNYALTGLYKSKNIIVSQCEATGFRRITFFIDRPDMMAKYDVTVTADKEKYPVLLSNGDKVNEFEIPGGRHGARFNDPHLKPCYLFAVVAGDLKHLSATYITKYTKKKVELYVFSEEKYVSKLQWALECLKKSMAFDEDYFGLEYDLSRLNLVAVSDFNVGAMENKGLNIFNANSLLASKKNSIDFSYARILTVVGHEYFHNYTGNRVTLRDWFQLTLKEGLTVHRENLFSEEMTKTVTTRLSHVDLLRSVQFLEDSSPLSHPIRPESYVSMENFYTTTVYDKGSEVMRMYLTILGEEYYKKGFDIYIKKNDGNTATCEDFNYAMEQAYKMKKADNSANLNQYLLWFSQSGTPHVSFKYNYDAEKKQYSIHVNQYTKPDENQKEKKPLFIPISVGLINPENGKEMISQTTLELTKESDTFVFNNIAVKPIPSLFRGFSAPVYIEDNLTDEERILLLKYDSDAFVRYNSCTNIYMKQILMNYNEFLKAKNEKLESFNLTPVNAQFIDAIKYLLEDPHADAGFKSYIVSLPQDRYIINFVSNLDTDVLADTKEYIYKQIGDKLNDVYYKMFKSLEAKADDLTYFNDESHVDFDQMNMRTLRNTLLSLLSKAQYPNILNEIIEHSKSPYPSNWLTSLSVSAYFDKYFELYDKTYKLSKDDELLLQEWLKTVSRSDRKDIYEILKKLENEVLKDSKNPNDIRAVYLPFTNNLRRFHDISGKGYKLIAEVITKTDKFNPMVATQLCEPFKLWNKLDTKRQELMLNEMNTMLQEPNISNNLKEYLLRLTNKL
# [10] = target: T4, Long-chain-fatty-acid--AMP ligase FadD28 (Mycobacterium tuberculosis, UniProt P9WQ59); assay: Fluorescence polarization aasay to screen for inhibitors that compete for the binding of FadD28 to a bisubstrate Measured in Biochemical System Using Plate Reader - 2147-01_Inhibitor_Dose_CherryPick_Activity.; type: functional, Mycobacterium tuberculosis H37Rv
# T4 sequence (P9WQ59 whole entry): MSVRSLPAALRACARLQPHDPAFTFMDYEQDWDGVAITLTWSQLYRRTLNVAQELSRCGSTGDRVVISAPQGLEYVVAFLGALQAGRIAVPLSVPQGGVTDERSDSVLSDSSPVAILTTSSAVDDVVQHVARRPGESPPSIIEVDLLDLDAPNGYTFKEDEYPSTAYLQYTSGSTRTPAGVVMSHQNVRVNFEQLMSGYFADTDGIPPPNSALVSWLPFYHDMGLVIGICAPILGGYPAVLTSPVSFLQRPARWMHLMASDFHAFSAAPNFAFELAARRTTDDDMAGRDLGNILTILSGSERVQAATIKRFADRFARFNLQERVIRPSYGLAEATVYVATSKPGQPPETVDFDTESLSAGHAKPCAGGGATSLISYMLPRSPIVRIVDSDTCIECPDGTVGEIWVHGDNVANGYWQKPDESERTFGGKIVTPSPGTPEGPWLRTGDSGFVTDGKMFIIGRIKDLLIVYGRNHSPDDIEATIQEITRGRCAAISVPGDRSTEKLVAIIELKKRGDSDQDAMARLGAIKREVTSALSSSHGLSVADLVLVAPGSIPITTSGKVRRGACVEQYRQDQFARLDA
# [11] = target: Transitional endoplasmic reticulum ATPase (Homo sapiens, UniProt P55072, C522A); assay: C522A mutant p97 ATPase inhibitors, dose response, counter-screen for p97 inhibitor project, biochemical, luminescence (AID 1544)
# [12] = target: Protein-tyrosine kinase 2-beta (Homo sapiens, UniProt Q14289);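 note: potency of inhibitors of PYK2 kinase phosphorylation of poly-GT substrate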
# [13] = target: Procathepsin L (Homo sapiens, UniProt P07711); assay: CTSL1 protease inhibition – biochemical, QFRET, 1536-well, counter-screen for M1/M17 aminopeptidase inhibitor project, dose response (AID 2214)
# [14] = target: Aspartyl aminopeptidase (Plasmodium falciparum 3D7, UniProt Q8I2J3); assay: Counterscreen for inhibitors of M1 and M17 aminopeptidases: QFRET-based biochemical high throughput dose response assay for inhibitors of the Plasmodium falciparum M18 Aspartyl Aminopeptidase (PFM18AAP). [Related PubChem assays: 1619 (Screening assay (M17LAP inhibitors).), 1445 (Screening assay (M1AAP inhibitors).)]
# [15] = cells; type: functional, cell-based
# [16] = cells; type: functional, cell-based; remark: listed apart in the source
# [17] = A Cell Based Secondary Assay To Explore Cytotoxicity of Compounds that Sensitize Mycobacterium Tuberculosis to Beta-Lactam Antibiotics.; type: functional
# [18] = target: T5, Bcl-2-like protein 10 (Homo sapiens, UniProt Q9HD36); assay: Concentration-response of Bcl-B inhibitors by biochemical FP with TR3 (AID 1243); type: functional
# T5 sequence (Q9HD36 whole entry): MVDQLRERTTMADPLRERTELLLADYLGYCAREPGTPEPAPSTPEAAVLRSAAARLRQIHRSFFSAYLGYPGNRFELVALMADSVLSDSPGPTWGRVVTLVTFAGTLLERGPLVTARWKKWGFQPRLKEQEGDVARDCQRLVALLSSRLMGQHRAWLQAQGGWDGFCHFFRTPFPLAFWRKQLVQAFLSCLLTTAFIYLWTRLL
# Procathepsin L, sequence (P07711 whole entry): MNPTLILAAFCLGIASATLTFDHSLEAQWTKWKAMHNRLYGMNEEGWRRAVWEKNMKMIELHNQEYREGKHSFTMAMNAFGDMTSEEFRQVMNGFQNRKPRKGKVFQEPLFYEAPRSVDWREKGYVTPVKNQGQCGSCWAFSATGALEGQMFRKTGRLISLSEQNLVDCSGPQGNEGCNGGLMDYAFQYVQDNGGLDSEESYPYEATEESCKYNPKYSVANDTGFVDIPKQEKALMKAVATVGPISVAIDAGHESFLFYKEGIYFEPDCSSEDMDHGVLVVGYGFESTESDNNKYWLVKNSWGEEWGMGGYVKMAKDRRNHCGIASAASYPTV
# Transitional endoplasmic reticulum ATPase (Homo sapiens, UniProt P55072), sequence (P55072 whole entry): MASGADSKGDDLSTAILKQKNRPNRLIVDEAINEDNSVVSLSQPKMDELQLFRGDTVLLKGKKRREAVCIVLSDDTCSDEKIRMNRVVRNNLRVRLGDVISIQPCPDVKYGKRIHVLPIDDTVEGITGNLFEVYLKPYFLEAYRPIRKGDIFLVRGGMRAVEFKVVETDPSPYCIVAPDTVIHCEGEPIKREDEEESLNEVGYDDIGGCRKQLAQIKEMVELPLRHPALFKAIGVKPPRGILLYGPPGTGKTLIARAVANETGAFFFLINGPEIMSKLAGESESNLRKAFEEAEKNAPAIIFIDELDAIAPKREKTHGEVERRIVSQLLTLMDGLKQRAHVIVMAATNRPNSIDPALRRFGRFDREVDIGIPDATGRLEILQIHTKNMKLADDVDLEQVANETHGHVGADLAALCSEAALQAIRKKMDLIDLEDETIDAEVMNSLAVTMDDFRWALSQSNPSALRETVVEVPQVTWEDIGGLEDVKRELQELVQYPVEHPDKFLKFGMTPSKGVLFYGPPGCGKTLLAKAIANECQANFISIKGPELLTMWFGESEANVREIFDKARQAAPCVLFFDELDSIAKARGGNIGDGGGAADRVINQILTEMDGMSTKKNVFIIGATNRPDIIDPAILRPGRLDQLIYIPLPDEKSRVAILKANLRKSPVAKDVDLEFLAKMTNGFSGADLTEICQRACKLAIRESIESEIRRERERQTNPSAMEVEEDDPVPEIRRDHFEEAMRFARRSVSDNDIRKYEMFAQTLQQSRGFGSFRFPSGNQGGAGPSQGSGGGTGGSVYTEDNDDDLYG
# Aspartyl aminopeptidase, sequence (Q8I2J3 whole entry): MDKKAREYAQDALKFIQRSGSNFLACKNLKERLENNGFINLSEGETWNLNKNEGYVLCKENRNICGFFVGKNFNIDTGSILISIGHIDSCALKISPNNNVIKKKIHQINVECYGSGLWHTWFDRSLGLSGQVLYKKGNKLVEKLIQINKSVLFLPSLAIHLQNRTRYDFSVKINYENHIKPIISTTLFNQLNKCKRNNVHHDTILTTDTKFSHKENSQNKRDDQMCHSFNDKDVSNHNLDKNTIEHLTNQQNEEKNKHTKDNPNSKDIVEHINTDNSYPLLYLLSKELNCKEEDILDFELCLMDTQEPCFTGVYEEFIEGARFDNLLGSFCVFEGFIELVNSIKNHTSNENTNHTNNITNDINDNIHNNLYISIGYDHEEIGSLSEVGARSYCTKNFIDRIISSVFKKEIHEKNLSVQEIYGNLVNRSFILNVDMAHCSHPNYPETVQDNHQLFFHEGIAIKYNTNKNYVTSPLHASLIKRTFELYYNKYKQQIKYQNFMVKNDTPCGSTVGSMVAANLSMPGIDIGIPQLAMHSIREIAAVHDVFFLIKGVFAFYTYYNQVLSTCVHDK
# Protein-tyrosine kinase 2-beta, sequence (Q14289 whole entry): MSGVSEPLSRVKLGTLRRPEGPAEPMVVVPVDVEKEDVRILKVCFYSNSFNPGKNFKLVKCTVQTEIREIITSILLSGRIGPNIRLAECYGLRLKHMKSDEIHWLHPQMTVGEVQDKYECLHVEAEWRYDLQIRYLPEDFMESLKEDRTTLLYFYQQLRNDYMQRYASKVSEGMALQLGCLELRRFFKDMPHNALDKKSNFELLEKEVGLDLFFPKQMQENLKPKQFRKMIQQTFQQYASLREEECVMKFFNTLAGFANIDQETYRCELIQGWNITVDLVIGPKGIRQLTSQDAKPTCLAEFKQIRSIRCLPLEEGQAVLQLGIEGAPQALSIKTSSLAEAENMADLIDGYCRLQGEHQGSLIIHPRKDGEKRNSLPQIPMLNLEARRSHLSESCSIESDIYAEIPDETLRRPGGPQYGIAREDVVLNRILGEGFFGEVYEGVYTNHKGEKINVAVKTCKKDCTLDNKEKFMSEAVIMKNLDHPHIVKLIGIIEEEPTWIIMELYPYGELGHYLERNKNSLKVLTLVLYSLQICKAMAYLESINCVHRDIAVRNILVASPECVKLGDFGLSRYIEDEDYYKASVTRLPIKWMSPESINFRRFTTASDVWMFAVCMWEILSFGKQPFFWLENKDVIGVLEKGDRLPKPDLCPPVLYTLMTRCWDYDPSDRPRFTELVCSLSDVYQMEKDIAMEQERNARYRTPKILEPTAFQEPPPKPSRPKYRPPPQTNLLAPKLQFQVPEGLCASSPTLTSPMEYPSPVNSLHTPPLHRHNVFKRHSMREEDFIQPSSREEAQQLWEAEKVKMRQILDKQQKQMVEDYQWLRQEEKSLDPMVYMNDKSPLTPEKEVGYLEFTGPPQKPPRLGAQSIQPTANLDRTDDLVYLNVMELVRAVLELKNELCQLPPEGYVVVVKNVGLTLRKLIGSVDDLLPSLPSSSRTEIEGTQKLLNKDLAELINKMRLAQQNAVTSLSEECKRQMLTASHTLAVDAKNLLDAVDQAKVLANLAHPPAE
# Transitional endoplasmic reticulum ATPase (Homo sapiens, UniProt P55072, C522A), sequence (P55072 2-806 C522A limits assumed): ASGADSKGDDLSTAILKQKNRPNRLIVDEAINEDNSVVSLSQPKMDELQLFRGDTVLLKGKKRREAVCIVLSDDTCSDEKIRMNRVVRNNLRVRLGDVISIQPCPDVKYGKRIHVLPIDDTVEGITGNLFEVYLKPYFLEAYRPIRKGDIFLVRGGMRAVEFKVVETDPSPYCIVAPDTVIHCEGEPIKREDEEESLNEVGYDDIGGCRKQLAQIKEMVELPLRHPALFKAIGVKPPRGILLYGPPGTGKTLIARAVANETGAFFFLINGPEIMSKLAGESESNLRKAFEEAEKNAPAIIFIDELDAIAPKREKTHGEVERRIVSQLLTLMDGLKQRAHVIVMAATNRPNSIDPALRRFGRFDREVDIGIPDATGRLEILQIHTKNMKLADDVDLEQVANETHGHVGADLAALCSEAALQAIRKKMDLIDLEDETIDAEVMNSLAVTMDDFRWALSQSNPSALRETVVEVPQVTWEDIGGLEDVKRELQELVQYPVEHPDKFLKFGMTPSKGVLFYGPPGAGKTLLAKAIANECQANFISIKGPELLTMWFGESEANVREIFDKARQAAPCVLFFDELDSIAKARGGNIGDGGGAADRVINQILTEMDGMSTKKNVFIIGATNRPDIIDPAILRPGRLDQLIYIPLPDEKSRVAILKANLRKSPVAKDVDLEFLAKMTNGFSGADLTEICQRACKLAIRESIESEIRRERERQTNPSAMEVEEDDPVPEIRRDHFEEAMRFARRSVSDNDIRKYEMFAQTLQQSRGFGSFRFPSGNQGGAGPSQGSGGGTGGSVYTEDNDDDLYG
smiles,measurement,setting,value
COc1ccccc1-n1c(SCC(=O)NC2CCCCC2)nc2c(c1=O)SCC2,EC50,[1],6.62 µM (not active)
COc1ccc(SCC(=O)N2c3ccccc3Sc3ccccc32)cc1,EC50,[2],> 500 µM (not active)
O=C(CSc1nc(O)nc(-c2ccc(Cl)cc2)n1)Nc1cccc(Cl)c1,EC50,[3],> 150 µM (not active)
same,EC50,[2],26.2 µM (active)
same,EC50,[4],4.35 µM (active)
Cc1[nH]c2ccccc2c1/C=C1/C(=N)N2C(=NC1=O)SN=C2S(=O)(=O)CC(C)C,EC50,[5],> 53 µM (inactive)
same,IC50,[6],9.51 µM (active)
same,IC50,[7],12.3 µM (not active)
same,IC50,[8],> 20 µM (inactive)
same,IC50,[9],29.5 µM (active)
same,AC50,[10],> 100 µM (inactive)
same,IC50,[11],> 50 µM (not active)
Cc1ccc(OC(=O)c2ccccc2P(=O)(O)O)cc1,IC50,[12],9.74 µM (active)
O=C(O)CCC(=O)N1N=C(c2c(-c3ccccc3)c3cc(Cl)ccc3[nH]c2=O)CC1c1ccco1 (stereo not given),IC50,[9],13 µM (active)
same,IC50,[13],> 59.6 µM (not active)
same,IC50,[14],> 73.5 µM (not active)
CC(C)N=C(S)NN=C1c2ccccc2-c2ccccc21,EC50,[15],> 350 µM (not active)
same,EC50,[16],> 350 µM (not active)
same,CC50,[17],> 40 µM (active)
COc1cc(C2Nc3ccc4ccccc4c3C3=C2C(=O)CC(C)(C)C3)c(Br)cc1O (stereo not given),EC50,[18],13.1 µM (active)
